8 molecules from PMC6943726, “Discovery of 8-Amino-Substituted 2-Phenyl-2,7-Naphthyridinone Derivatives as New c-Kit/VEGFR-2 Kinase Inhibitors” (Molecules, 2019) can be followed below.

Common to all, as to format: biochemical
For one assay, the target named is T1, VEGFR-2 (Homo sapiens, UniProt P35968).
T1 construct: was evaluated using an enzyme assay with a recombinant kinase domain; purchased Invitrogen (Carlsbad, CA, US)
Nature of the assay: HTRF enzyme assay with recombinant VEGFR-2 kinase domain. The note with it: purified recombinant VEGFR-2 kinase domain, HTRF; read-out: Inhibitory Activity, IC50, VEGFR-2. The procedure: (§1) The ability of the synthesized compounds to inhibit MET, c-Kit, and VEGFR-2 activities was evaluated using an enzyme assay with a recombinant kinase domain [29]. Based on the structure activity relationship (SAR) of MET inhibitors, we proposed that the removal of the key diaryl ether fragments in compound 3 would result in a loss of MET activity.
(§2) The ability of compounds to inhibit the activity of three kinases (MET, c-Kit, and VEGFR-2) was tested in vitro [30]. Enzyme assays were run in homogeneous time-resolved fluorescence (HTRF) format in 384-well microtiter plates using purified kinases purchased from Invitrogen (Carlsbad, CA, US). The HTRF KinEASE TK kit (contains substrate-biotin, antibody-cryptate, streptavidin-XL665, 5×enzymatic buffer, and detection buffer) was purchased from Cisbio (Codolet, France), and the kinase assays were performed according to the manufacturer’s instructions. After the kinases and the compounds incubated at 25~30 °C for 5 min, the reactions were initiated by the addition of 2 μL of mixed substrate solution (mixed solution of ATP (Sigma, Shanghai, China) and substrate-biotin). The final concentrations of kinases were at EC80 and the total reaction volume was 8 μL. Plates were incubated at 30 °C for 30~60 min, then the reactions were quenched by the addition 8 μL mixed detection solution (mixed solution of antibody-cryptate and streptavidin-XL665 in detection buffer). The fluorescence excitation wavelength was […]. The fluorescence at 665 nm (acceptor emission wavelength) and 620 nm (donor emission wavelength) was measured with a PHERAstar FS plate reader (BMG, LABTECH, Ortenberg, Germany) using a time delay of 50 μs. All kinase assays were conducted using ATP concentrations below the enzyme Kmapp and kinase-specific biotinylated substrate peptides.
(§3) The data for dose responses were plotted as percentage of inhibition calculated with the data reduction formula 100 × [1 − (U1 − C2)/(C1 − C2)] versus concentration of compound, where U is the emission ratio of 665 nm and 620 nm of test sample, C1 is the average value obtained for solvent control (2% DMSO), and C2 is the average value obtained for no reaction control (no kinase sample). Inhibition curves were generated by plotting percentage of control activity versus log10 of the concentration of each […]. The IC50 values were calculated by nonlinear regression with Graphpad Prism 5 (GraphPad Software, San Diego, CA).

The target of a further assay is T2, c-Kit (Homo sapiens, UniProt P10721).
T2 construct: was evaluated using an enzyme assay with a recombinant kinase domain; purchased Invitrogen (Carlsbad, CA, US)
T2 sequence (P10721 589-937 limits assumed): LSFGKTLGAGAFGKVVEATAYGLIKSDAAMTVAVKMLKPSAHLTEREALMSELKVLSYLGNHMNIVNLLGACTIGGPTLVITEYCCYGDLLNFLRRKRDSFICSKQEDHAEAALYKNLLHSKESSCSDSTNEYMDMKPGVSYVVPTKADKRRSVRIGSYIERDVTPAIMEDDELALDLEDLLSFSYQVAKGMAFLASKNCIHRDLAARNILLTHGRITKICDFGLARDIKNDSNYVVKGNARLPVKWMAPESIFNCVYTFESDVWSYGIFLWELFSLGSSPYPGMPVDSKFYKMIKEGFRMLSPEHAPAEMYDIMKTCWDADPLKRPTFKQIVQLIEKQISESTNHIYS
In words: HTRF enzyme assay with recombinant c-Kit kinase domain. The note with it: for IC50: purified recombinant c-Kit kinase domain, HTRF, read-out: Inhibitory Activity, IC50, c-Kit. The procedure:
as §1, §2, §3

For the next assay, the target named is T3, MET (Homo sapiens, UniProt P08581).
T3 construct: was evaluated using an enzyme assay with a recombinant kinase domain; purchased Invitrogen (Carlsbad, CA, US)
T3 sequence (P08581 1078-1345 limits assumed): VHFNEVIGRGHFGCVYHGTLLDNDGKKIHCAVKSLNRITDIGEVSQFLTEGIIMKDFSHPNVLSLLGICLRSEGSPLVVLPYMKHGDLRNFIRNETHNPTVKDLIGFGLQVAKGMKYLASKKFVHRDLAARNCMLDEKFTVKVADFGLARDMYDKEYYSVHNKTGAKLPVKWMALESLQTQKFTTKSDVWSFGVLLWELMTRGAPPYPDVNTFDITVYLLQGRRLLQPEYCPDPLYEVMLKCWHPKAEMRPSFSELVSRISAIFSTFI
In words: HTRF enzyme assay with recombinant MET kinase domain. The note with it: purified recombinant MET kinase domain, read-out: Inhibitory Activity, IC50, MET. The protocol:
as §1, §2, §3

T1 sequence (P35968 834-1162 limits assumed): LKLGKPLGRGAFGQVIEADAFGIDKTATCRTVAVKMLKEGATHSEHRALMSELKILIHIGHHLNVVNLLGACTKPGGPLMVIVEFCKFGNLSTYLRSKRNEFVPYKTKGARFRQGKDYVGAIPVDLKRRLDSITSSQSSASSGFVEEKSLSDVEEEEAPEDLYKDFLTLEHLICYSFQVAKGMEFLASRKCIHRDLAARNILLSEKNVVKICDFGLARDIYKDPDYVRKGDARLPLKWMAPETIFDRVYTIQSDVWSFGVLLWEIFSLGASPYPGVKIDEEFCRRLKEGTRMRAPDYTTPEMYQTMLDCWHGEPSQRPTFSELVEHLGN

On to `Cc1cc2ccnc(Nc3cccnc3)c2c(=O)n1-c1ccc(Cl)cc1` [Compound 10i, 2-(4-chlorophenyl)-3-methyl-8-(pyridin-3-ylamino)-2,7-naphthyridin-1(2H)-one], for which the IC50 on VEGFR-2, on c-Kit and on MET was above 5 µM throughout.
For `O=c1c2c(NCc3ccco3)nccc2ccn1-c1ccc(F)cc1` [Compound 9i, 2-(4-fluorophenyl)-8-((furan-2-ylmethyl)amino)-2,7-naphthyridin-1(2H)-one], the IC50 on VEGFR-2, on c-Kit and on MET was above 5 µM throughout.
For the molecule `Nc1nccc(Oc2ccc(Nc3nccc4ccn(-c5ccc(F)cc5)c(=O)c34)cc2F)c1Cl` [Compound 3, reference compound], the IC50 at VEGFR-2 was determined as 0.28 µM; at c-Kit, 0.33 µM; on MET, 0.0099 µM.
`Cc1cc2ccnc(NCc3ccncc3)c2c(=O)n1-c1ccc(OC(F)(F)F)cc1` [Compound 10o, 3-methyl-8-((pyridin-4-ylmethyl)amino)-2-(4-(trifluoromethoxy)phenyl)-2,7-naphthyridin-1(2H)-one]: the IC50 at VEGFR-2 was 0.538 µM; at c-Kit it was above 5 µM; at MET, above 5 µM.
As for `Cc1cc2ccnc(NCc3ccnc4ccccc34)c2c(=O)n1-c1ccc(F)cc1` [Compound 10d, 2-(4-fluorophenyl)-3-methyl-8-((quinolin-4-ylmethyl)amino)-2,7-naphthyridin-1(2H)-one], the IC50 on VEGFR-2 is 0.208 µM; at c-Kit it was 1.61 µM; on MET it was above 5 µM. Also, the “c-Kit inhibitory activity (in words)” value on c-Kit is recorded as “weak c-Kit inhibitory activity”.
For `Cc1cc2ccnc(NCc3cccnc3)c2c(=O)n1-c1ccccc1` [Compound 10f, 3-methyl-2-phenyl-8-((pyridin-3-ylmethyl)amino)-2,7-naphthyridin-1(2H)-one], the IC50 at VEGFR-2, at c-Kit and at MET was above 5 µM each time.
As to `O=c1c2c(NCc3ccccc3)nccc2ccn1-c1ccc(F)cc1` [Compound 9f, 8-(benzylamino)-2-(4-fluorophenyl)-2,7-naphthyridin-1(2H)-one], the IC50 at VEGFR-2, on c-Kit and at MET was above 5 µM throughout.
Consider `Cc1cc2ccnc(NCc3ccncc3)c2c(=O)n1-c1ccc(Cl)cc1` [Compound 10k, 2-(4-chlorophenyl)-3-methyl-8-((pyridin-4-ylmethyl)amino)-2,7-naphthyridin-1(2H)-one], for which the half-inhibitory concentration (IC50) on VEGFR-2 was 0.263 µM; on c-Kit, above 5 µM; at MET it was above 5 µM.
